Reference: patent publication US9102637B2, “Bicyclic thiazole compounds” (CARNA BIOSCIENCES INC., priority 2013, dated 2015)

Molecular target: human TNIK (N-terminal segment, TNIK_N, residues 1-314) (Homo sapiens (Human), UniProt Q9UKE5)
Assay: TNIK kinase assay (mobility shift)
Format: biochemical
Settings: TNIK_N kinase activity, 25 μM ATP, 1 h at room temperature
Source text: Preparation of Recombinant Human TNIK (N-Terminal Segment):
A cDNA encoding the N-terminal segment (TNIK_N, residues 1-314) containing the kinase domain of human TNIK (NM_015028.1) was amplified from cDNA mixture synthesized from human tissue (Biochain) by PCR using the following primers.
The cDNA was subcloned into baculovirus transfer vector pFastBac_GSTb that includes protease cleavage site and glutathione S-transferase purification tag (GST-tag). The plasmid was purified and the insertion of the pFastBac_GSTb-TNIK_N was confirmed by DNA sequencing. Then E. coli DH10Bac competent cells were transformed with the plasmid to prepare the recombinant bacmid according to the instructions for the Bac-to-Bac™ baculovirus expression systems (Invitrogen). The Sf9 cells were transfected with the recombinant bacmid containing pFastBac_GSTb-TNIK_N using Cellfectin Reagent (Invitrogen) in SF-9001I serum free media (Invitrogen). The viral supernatant was collected from the medium 72 h after transfection. The virus was amplified three times by infecting actively growing Sf9 or Sf21 cells in Grace's insect media (Invitrogen) supplemented with 10% FCS and an antibiotic-antimycotic reagent (Invitrogen) for 72 h at 27° C. in T-flask or roller bottles. The titer of amplified TNIK_N virus was estimated at 2.36×10^8 pfu/ml by using BacPAK™ Baculovirus Rapid Titer kit (Clontech).
Log-phase Sf21 cells (2×10^6 cells/ml) in the Grace's insect media were infected with the recombinant baculovirus at MOI of 3.0 and incubated in roller bottles (250 ml media per bottle) for 72 h at 27° C., after which, the cells were collected by centrifugation, and the cell pellet washed with cold PBS and kept at −80° C. until purification. The following purification procedures were carried out at 4° C. The frozen cells were thawed on ice and lysed in lysis buffer (50 mM Tris-HCl, pH 7.5, 150 mM NaCl, 1% Nonidet P-40, 5 mM DTT, 0.5 mM EDTA, 0.5 mM EGTA) supplemented with 1 mM phenylmethansulfonylfluoride, 2 μg/ml leupeptin, 2 μg/ml aprotinin, 1 mM NaF, 100 μM sodium orthovanadate, and 1 μM cantharidin by sonication. The suspended lysate was cleared by centrifugation at 9000g for 20 min and the supernatant was incubated for 1 h with glutathione Sepharose beads (GE Healthcare). The beads were suspended in buffer-H (50 mM Tris-HCl, pH 7.5, 1 M NaCl, 1 mM DTT, 0.5 mM EDTA, 0.5 mM EGTA and 0.05% Brij35) and washed with buffer-H followed by buffer-L (50 mM Tris-HCl, pH 7.5, 150 mM NaCl, 1 mM DTT, 0.5 mM EDTA, 0.5 mM EGTA, 0.05% Brij35) in an Econo-pack column (BIO-RAD). The bound TNIK_N was eluted with elution buffer (50 mM Tris-HCl, pH 8.0, 150 mM NaCl, 1 mM DTT, 10% glycerol, 0.5 mM EDTA, 0.5 mM EGTA and 5 mM reduced glutathione). The eluted fractions were collected and determined the protein concentration by Bradford reagent (BIO-RAD). The TNIKN fractions were pooled and desalted using 10DG column (BIORAD) equilibrated with the storage buffer (50 mM Tris-HCl, pH 7.5, 150 mM NaCl, 1 mM DTT, 10% glycerol, 0.05% Brij35). The purified TNIKN was characterized by electrophoresis using 4-20% polyacrylamide gels and matrix-assisted laser desorption/ionization reflection time-of-flight (MALDI-TOF) mass spectrometry on a Voyager-DE RP MALDI/TOF (Applied Biosystems). TNIK_N was confirmed by the molecular weight and. MASCOT Peptide Mass Fingerprint.
The kinase assays were conducted in a 20 μl volume using 384-well plates (Greiner). The reaction mixture consists of compound or vehicle (1% DMSO), 0.08 ng/μl TNIK_N, 1 μM FITC-labeled substrate peptides, including E-aminocaproic acid and 7 amino acids (described as SEQ ID NO.3 in “Kinase assay of TEST EXAMPLE 1” of WO 2010/064111(P.31)), 20 mM Hepes, pH 7.5, 0.01% Triton X-100, 5 mM MgCl2, 25 μM ATP and 2 mM DTT. As blank, TNIK N was excluded from the reaction mixture of vehicle (1% DMSO). […]

Chain of human TNIK (N-terminal segment, TNIK_N, residues 1-314) (Q9UKE5 1-314): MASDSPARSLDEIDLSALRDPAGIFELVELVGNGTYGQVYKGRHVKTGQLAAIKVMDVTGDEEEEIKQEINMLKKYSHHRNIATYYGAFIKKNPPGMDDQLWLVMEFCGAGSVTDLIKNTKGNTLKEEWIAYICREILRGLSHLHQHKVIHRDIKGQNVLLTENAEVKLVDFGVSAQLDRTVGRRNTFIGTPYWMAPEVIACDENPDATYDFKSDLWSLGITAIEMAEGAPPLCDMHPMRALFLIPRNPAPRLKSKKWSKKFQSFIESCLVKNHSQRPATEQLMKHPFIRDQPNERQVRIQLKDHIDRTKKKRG

Row | IC50 [nM] | SMILES
1 | 5 | NC(=O)c1nc(Nc2ccc3ccccc3c2)sc1NC(=O)c1ccc(CN2CC[C@H](O)C2)cc1 [Example 203, (S)-5-{4-[(3-hydroxypyrrolidin-1-yl)methyl]benzamido}-2-(naphthalen-2-ylamino)thiazole-4-carboxamide]
2 | 5.5 | NC(=O)c1nc(Nc2ccc3ccccc3c2)sc1NC(=O)c1ccc(CN2CC[C@@H](O)C2)cc1 [Example 202, (R)-5-{4-[(3-hydroxypyrrolidin-1-yl)methyl]benzamido}-2-(naphthalen-2-ylamino)thiazole-4-carboxamide]
3 | 5.6 | NC(=O)c1nc(Nc2ccc3ccccc3c2)sc1NC(=O)c1ccc(CN2CC(O)C2)cc1 [Example 201, 5-{4-[(3-hydroxyazetidin-1-yl)methyl]benzamido}-2-(naphthalen-2-ylamino)thiazole-4-carbox-amide]
4 | 8.4 | NC(=O)c1nc(Nc2ccc3ccc(F)cc3c2)sc1NC(=O)c1ccc(Cn2ccnc2)cc1 [Example 262, 5-{4-[(1H-imidazol-1-yl)methyl]benzamido}-2-[(7-fluoronaphthalen-2-yl)amino]thiazole-4-carbox-amide]
5 | 7.7 | NC(=O)c1nc(Nc2ccc3ccccc3c2)sc1NC(=O)c1ccc(Cn2ccnc2)s1 [Example 251, 5-{5-[(1H-imidazol-1-yl)methyl]thiophene-2-carboxamido}-2-(naphthalen-2-ylamino)thiazole-4-carboxamide]
6 | 7.1 | Cc1nnnn1Cc1ccc(C(=O)Nc2sc(Nc3ccc4ccccc4c3)nc2C(N)=O)cc1 [Example 244, 5-{4-[(5-methyl-1H-tetrazol-1-yl)methyl]benz-amido}-2-(naphthalen-2-ylamino)thiazole-4-carbox-amide]
7 | 5.5 | NC(=O)c1nc(Nc2cccc3cccnc23)sc1NC(=O)c1ccc(Cn2ccnc2)cc1 [Example 259, 5-{4-[(1H-imidazol-1-yl)methyl]benzamido}-2-(quinolin-8-ylamino)thiazole-4-carboxamide]
8 | 3.5 | NC(=O)c1nc(Nc2ccc3ccccc3c2)sc1NC(=O)c1ccc(Cn2cnc(CO)c2)cc1 [Example 246, 5-{4-[(4-(hydroxymethyl)-1H-imidazol-1-yl)methyl]benzamido}-2-(naphthalen-2-ylamino)thiazole-4-carboxamide]
9 | 3.1 | Cc1cn(Cc2ccc(C(=O)Nc3sc(Nc4ccc5ccccc5c4)nc3C(N)=O)cc2)cn1 [Example 238, 5-{4-[(4-methyl-1H-imidazol-1-yl)methyl]benz-amido}-2-(naphthalen-2-ylamino)thiazole-4-carbox-amide]
10 | 4.2 | NC(=O)c1nc(Nc2ccc3ccccc3c2)sc1NC(=O)c1ccc(CN2CCNC(=O)C2)cc1 [Example 180, 2-(naphthalen-2-ylamino)-5-{4-[(3-oxopiperazin-1-yl)methyl]benzamido}thiazole-4-carboxamide]
11 | 10.3 | NC(=O)c1nc(Nc2ccc3ccccc3c2)sc1NC(=O)c1ccc(Cn2cccn2)cc1 [Example 232, 5-{4-[(1H-pyrazol-1-yl)methyl]benzamido}-2-(naphthalen-2-ylamino)thiazole-4-carboxamide]

Continued, compound first:

Row | SMILES | IC50 [nM]
12 | NC(=O)c1nc(Nc2ccc3ccccc3c2)sc1NC(=O)c1ccc(NCCO)c(N)c1 [Example 121, 5-{3-amino-4-[(2-hydroxyethyl)amino]benzamido}-2-(naphthalen-2-ylamino)thiazole-4-carbox-amide] | 24.4
13 | COc1ccc(C(=O)Nc2sc(Nc3ccc4ncccc4c3)nc2C(N)=O)cc1 [Example 4, 5-(4-methoxybenzamido)-2-(quinolin-6-ylamino) thiazole-4-carboxamide] | 21.5
14 | CN1CCN(C/C=C/C(=O)Nc2sc(Nc3ccc4ccccc4c3)nc2C(N)=O)CC1 [Example 174, (E)-5-(4-(4-methylpiperazin-1-yl)but-2-enamido)-2-(naphthalen-2-ylamino)thiazole-4-carboxamide] | 16
15 | CC(C)=CC(=O)Nc1sc(Nc2ccc3cc(CO)ccc3c2)nc1C(N)=O [Example 139, 2-{[6-(hydroxymethyl)naphthalen-2-yl]amino}-5-(3-methylbut-2-enamido)thiazole-4-carboxamide] | 1.6
16 | CN(CCO)c1ccc(C(=O)Nc2sc(Nc3ccc4ccccc4c3)nc2C(N)=O)cc1 [Example 29, 5-{4-[(2-hydroxyethyl)methylamino]benzamido}-2-(naphthalen-2-ylamino)thiazole-4-carboxamide] | 27.4
17 | C[C@H](O)CNc1ccc(C(=O)Nc2sc(Nc3ccc4ccccc4c3)nc2C(N)=O)cc1 [Example 146, (S)-5-{4-[(2-hydroxypropyl)amino]benzamido}-2-(naphthalen-2-ylamino)thiazole-4-carboxamide] | 15.1
18 | NC(=O)c1nc(Nc2ccc3ccccc3c2)sc1NC(=O)C#CCCO [Example 225, 5-(5-hydroxypent-2-ynamido)-2-(naphthalen-2-ylamino)thiazole-4-carboxamide] | 4
19 | COc1ccc2cc(Nc3nc(C(N)=O)c(NC(=O)c4ccc(N)cc4)s3)ccc2c1 [Example 136, 5-(4-aminobenzamido)-2-[(6-methoxynaphthalen-2-yl)amino]thiazole-4-carboxamide] | 9.7
20 | NCCNc1ccc(C(=O)Nc2sc(Nc3ccc4ccccc4c3)nc2C(N)=O)cc1 [Example 188, 5-{4-[(2-aminoethyl)amino]benzamido}-2-(naph-thalen-2-ylamino)thiazole-4-carboxamide] | 8.4
21 | NC(=O)c1nc(Nc2ccc3ccccc3c2)sc1NC(=O)c1ccc(CN2CC[C@H](N)C2)cc1 [Example 220, (S)-5-{4-[(3-aminopyrrolidin-1-yl)methyl]benz-amido}-2-(naphthalen-2-ylamino)thiazole-4-carbox-amide] | 3
22 | NC(=O)c1nc(Nc2ccc3ccccc3c2)sc1NC(=O)C1CC1 [Example 93, 5-(cyclopropanecarboxamido)-2-(naphthalen-2-yl-amino)thiazole-4-carboxamide] | 15
23 | Cc1ccc(C(=O)Nc2sc(Nc3ccc4ccccc4c3)nc2C(N)=O)cc1N [Example 9, 5-(3-amino-4-methylbenzamido)-2-(naphthalen-2-ylamino)thiazole-4-carboxamide] | 27.2
24 | NC(=O)c1nc(Nc2ccc3ccccc3c2)sc1NC(=O)c1ccc(CN2CCCCC2CO)cc1 (stereo not drawn) [Example 189, 5-(4-{[2-(hydroxymethyl)piperidin-1-yl]methyl}benzamido)-2-(naphthalen-2-ylamino)thiazole-4-carboxamide] | 6.8
25 | NC(=O)c1nc(Nc2ccc3ccc(F)cc3c2)sc1NC(=O)C1CC1 [Example 122, 5-(cyclopropanecarboxamido)-2-[(7-fluoro-naphthalen-2-yl)amino]thiazole-4-carboxamide] | 12.8
26 | NC(=O)c1nc(Nc2ccc3ccccc3c2)sc1NC(=O)c1ccc(CN2CCC(O)CC2)cc1 [Example 173, 5-{4-[(4-hydroxypiperidin-1-yl)methyl]benzamido}-2-(naphthalen-2-ylamino)thiazole-4-carbox-amide] | 3.4
27 | NC(=O)c1nc(Nc2ccc3ccccc3c2)sc1NC(=O)c1ccc(CN2CCC(N)CC2)cc1 [Example 222, 5-{4-[(4-aminopiperidin-1-yl)methyl]benzamido}-2-(naphthalen-2-ylamino)thiazole-4-carboxamide] | 1.3
